The results in this text go back to patent publication US12714702B2, “Compositions and methods for treating or preventing pulmonary hypertension” (priority 2020, dated 2026).

SMILES strings stand for the structures. Bounds are passed on as bounds.

Common to all, as to format: in vivo, rat
Assay [1] relates to p62, BMPR2, LC3B-II, p21, p65, phospho-AKT, phospho-p65 in right lung. In words: SU5416/hypoxia model, western blot of right lung homogenate. The source says: FIGS. 18E-18F show western blot analysis of tissue (right lung) lysates for expression of various disease marker proteins including p62, BMPR2, LC3B-II, p21, p65, p53, phosphorylated-p53 and phosphorylated-AKT using corresponding monoclonal antibodies.
The accumulation of p62, a protein degraded by autophagy pathways, is indicative of autophagy inhibition.
A general note: Immunoblotting shows a protein as a band on a membrane.

The subject of assay [2] is Ki67, PCNA, vWF, α-SMA in MCT-induced PAH animal lung tissue. In words: MCT model, immunofluorescence of lung tissue. The settings on record: MCT rats. The protocol: FIGS. 12A-12B show immunofluorescence imaging for MCT-induced PAH animal lung tissue slides.
Preclinical in-vivo studies for QA were earlier performed at a dose of 10 mg/kg once-a-day in monocrotaline (MCT) induced therapeutic PAH model. Hemodynamic parameters were collected and lung tissues were also collected and were sectioned for visualizing the impact of QA treatment on various PAH biomarkers in-vivo.
OCT compound embedded Tissue sections for control animals, MCT induced PAH animals and QA treated animals were further subjected to immunofluorescent staining to analyze expression levels of essential molecular markers. Briefly, tissue sections were washed twice with 1×PBS followed by blocking for one hour using a blocking buffer (Cell Signaling Technology, Danvers, MA, USA). Followed by blocking, tissue sections were stained with respective primary antibodies overnight; VWF #ab15419, 1:100 (abcam), α-SMA #489385, 1:500 (CST), Ki67 #9129S (CST), 1:250 and PCNA #2586S (CST), 1:100. Following day, tissue sections were washed with 1×PBS twice followed by incubation with Anti-rabbit IgG (H+L), F(ab′)2 Fragment (Alexa Fluor® 488 Conjugate) #4412S 1:250 (CST) and Anti-mouse IgG (H+L), F(ab′)2 Fragment (Alexa Fluor® 594 Conjugate) #8890S, 1:500 (CST) for one hour. Further, sections were washed with 1×PBS twice and the nuclei were stained with DAPI using Vectashield hardset antifade mounting medium with DAPI (Vector Laboratories, Burlingame, CA, USA). Tissues were imaged using Zeiss Axioplan 2 fluorescence microscope (Carl Zeiss AG, Jena, Germany).
Immunofluorescence imaging of the MCT-induced PAH animal lung tissue slides was also performed.

The subject of assay [3] is IL-6, Acta2, serpinel, Id3, BMPR2 mRNA. Nature of the assay: SU5416/hypoxia model, mRNA expression by real time PCR. The settings on record: SU5416/hypoxia rats. A general note: In qPCR the cycle at which signal appears reflects the starting amount.

`CCN(CC)CCCC(C)Nc1c2ccc(Cl)cc2nc2ccc(OC)cc12` (stereo not shown) [QA, quinacrine]: in assay [1] (right lung homogenate), the “autophagy marker LC3B-II” value was “accumulated” and the “autophagy marker p62” value is on record as “accumulated”. For the same molecule, the “accumulation of BMPR2” value in assay [1] (right lung homogenate, in comparison to control animals) is > 2 fold. Also, in assay [1] (tissue lysates), the “expression of p21 protein” value is recorded as “significant increase”, the “expression of phospho-AKT” value is recorded as “decreased”, the “expression of phospho-p65” value is recorded as “decreased” and the p65 entry is listed as “significant reduction”. In assay [2], the “expression of Ki67” value is recorded as “reduction in expression” and the “expression of PCNA” value is “reduction in expression”. Moreover, in assay [2] (compared to control), the “expression of vWF” value is recorded as “did not show any reduction in expression” and the “expression of α-smooth muscle actin (α-SMA)” value was “did not show any reduction in expression”. Moreover, the “BMPR2 mRNA expression” value in assay [3] is given as “no significant changes”. In addition, in assay [3] (real time PCR), the “Acta2 gene (smooth muscle actin-alpha) expression” value is on record as “decreased”, the “IL-6 mRNA levels” value is listed as “decreased”, the “Id3 mRNA level” value is recorded as “did not significantly change” and the “mRNA levels of serpinel” value was “reduced”.
